Results: patent US9056111B1, “Selective efflux inhibitors and related pharmaceutical compositions and methods of treatment” (STC.UNM, priority 2011, dated 2015)
Several values for one entry are separate records, joined by “and”; a condition that tells them apart may be missing. Equal entries are not always repeated. Where two headings read alike, the source gives them in different places.

Legend:
ABCB1 = ABCB1 (Homo sapiens, UniProt P08183); assay: JC-1 efflux inhibition dose response, flow cytometry, Jurkat-DNR cells; details: for IC50: Jurkat-DNR cells over-expressing ABCB1, averages of two to four replicates
Summary of the method: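 Jurkat-DNR cells pre-stained with 1 μM JC-1 were incubated with compound (final 50 μM to 69 nM, […]) at 1×10^6 cells/mL, rotated 30 min at 25° C. Retained JC-1 read by flow cytometry (488 nm excitation, 530/40 nm emission). Curves fitted to a four-parameter logistic.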

ABCB1 / ABCG2 = target: T1, ABCB1 / ABCG2 (Homo sapiens, UniProt Q9UNQ0); assay: JC-1 efflux inhibition dose response, flow cytometry, Ig-MXP3 cells; details: human, probe JC-1 (1 µM), ~Fold G2 Selective (B1/G2), quotient of average ABCB1 IC50 and average ABCG2 IC50, efflux assay
T1 sequence (Q9UNQ0 1-655): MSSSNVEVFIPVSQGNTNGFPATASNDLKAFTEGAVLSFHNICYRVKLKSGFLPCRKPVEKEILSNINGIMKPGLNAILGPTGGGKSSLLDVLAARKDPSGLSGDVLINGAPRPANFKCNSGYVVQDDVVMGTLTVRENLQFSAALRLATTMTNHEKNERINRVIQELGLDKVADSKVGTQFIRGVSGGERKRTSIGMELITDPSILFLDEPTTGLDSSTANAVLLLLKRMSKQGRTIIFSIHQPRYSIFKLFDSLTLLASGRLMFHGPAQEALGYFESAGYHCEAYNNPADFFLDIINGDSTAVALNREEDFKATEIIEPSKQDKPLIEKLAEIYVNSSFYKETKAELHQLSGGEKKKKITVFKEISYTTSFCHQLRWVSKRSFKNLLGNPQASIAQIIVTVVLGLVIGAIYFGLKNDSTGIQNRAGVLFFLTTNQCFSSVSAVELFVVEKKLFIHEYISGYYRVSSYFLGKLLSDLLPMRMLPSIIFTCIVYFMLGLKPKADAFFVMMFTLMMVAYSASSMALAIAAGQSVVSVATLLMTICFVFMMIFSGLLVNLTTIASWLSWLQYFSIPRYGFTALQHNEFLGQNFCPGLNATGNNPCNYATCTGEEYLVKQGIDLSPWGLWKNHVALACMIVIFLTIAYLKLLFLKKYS
Summary of the method: (§1)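 Ig-MXP3 (ABCG2) and Jurkat-DNR (ABCB1) cells, run separately, are pre-stained with 1 μM JC-1 and added to compound in PBS; retained dye is read by high-throughput flow cytometry with time-gated analysis.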

ABCG2 = target: T2, ABCG2 (Homo sapiens, UniProt Q9UNQ0); assay: as above
T2 sequence (Q9UNQ0 1-655): T1 sequence (Q9UNQ0 1-655)
Summary of the method: as §1

[1] = test system: ABCB1 over-expressing Jurkat-DNR cells; assay: Chemoreversal assay: potentiation of daunorubicin (DNR) killing; type: cell-based
[2] = test system: ABCG2 over-expressing Ig-MXP3 cells; assay: Chemoreversal assay: potentiation of mitoxantrone (MTX) killing; type: cell-based; details: Ig-MXP3 cells
Jurkat-DNR cells = assay: Direct cytotoxicity (Toxic Dose 50) without chemotherapeutic
Description: Cells (ABCB1, Jurkat-DNR or ABCG2 Ig-MXP3) are incubated with the test compound (3 order of magnitude concentration range) over a 3-day and 7-day period in the presence of the inhibitor and chemotherapeutic (ABCB1, DNR or ABCG2 MTX), such that a cell concentration of at least 1×10^5 cells/mL is maintained. Cell viability is determined by trypan blue staining and enumeration under light microscopy. […] A chemoreversal index (Chemoreversal 50, CR50) is determined from the viability assessment. Using a similar approach, a direct cytotoxicity index (Toxic Dose 50, TD50) is determined by assessment of cell death of cells grown in media alone.
Cells (ABCB1, Jurkat-DNR or ABCG2 Ig-MXP3) were incubated with the test compound in a 3 order of magnitude concentration range over three and seven day periods in the presence of the inhibitor and chemotherapeutic (ABCB1, 100 nM DNR or ABCG2 30 nM MTX), such that a cell concentration of at least 1×10^5 cells mL^−1 was maintained. Cell viability was determined by trypan blue staining and enumeration under light microscopy. […] A chemoreversal index (Chemoreversal 50, CR50) was determined from the viability assessment. Using a similar approach, a direct cytotoxicity index (Toxic Dose 50, TD50) was determined by assessment of cell death of cells grown in media alone.

Ig-MXP3 cells = assay: as above; type: cell-based
[3] = IC50 ABCB1 (efflux inhibition of JC-1 substrate)
[4] = constant 100 nM DNR, varied inhibitor dose, read-out: CR50 ABCB1
[5] = constant 30 nM MTX, varied inhibitor dose, read-out: CR50 ABCG2
[6] = Jurkat-DNR cells, inhibitor without chemotherapeutic
[7] = Ig-MXP3 cells, inhibitor without chemotherapeutic
[8] = read-out: IC50 ABCB1 (efflux inhibition of JC-1 substrate)

ABCB1, sequence (P08183 whole entry): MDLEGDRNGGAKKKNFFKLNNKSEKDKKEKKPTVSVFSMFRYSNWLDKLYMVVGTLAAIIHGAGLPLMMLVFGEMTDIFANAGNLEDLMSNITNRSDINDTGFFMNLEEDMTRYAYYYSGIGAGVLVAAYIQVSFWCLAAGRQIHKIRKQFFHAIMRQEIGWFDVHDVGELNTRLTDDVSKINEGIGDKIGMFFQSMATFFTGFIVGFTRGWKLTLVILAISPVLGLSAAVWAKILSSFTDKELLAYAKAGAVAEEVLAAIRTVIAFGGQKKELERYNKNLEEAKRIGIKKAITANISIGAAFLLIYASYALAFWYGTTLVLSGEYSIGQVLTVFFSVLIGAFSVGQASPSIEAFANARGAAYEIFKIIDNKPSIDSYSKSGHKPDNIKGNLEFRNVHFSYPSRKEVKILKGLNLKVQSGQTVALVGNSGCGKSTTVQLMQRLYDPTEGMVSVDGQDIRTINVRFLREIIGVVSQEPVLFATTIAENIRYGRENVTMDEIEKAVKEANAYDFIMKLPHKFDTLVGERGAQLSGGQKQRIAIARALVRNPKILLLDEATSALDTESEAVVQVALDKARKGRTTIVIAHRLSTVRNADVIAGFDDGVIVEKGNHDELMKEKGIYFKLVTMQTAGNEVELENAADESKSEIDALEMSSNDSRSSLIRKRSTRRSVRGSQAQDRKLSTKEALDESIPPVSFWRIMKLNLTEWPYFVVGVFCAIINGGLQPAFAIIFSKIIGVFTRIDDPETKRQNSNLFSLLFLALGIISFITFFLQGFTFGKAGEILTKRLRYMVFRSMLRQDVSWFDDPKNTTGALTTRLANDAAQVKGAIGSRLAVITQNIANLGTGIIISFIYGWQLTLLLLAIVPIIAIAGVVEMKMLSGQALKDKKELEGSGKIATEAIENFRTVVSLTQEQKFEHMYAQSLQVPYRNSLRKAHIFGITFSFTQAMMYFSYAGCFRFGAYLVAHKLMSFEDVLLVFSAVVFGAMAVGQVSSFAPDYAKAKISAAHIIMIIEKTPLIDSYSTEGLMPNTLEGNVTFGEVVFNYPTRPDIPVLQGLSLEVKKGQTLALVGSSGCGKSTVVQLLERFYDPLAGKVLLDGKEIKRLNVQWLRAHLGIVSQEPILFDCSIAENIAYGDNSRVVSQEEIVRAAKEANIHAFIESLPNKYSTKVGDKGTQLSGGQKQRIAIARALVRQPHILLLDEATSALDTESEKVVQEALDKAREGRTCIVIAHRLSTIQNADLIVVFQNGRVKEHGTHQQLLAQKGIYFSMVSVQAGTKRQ

| Compound | IC50 (ABCB1; [3]) | selectivity ratio at 30 min (ABCB1 / ABCG2) | IC50 (ABCG2) [µM] | EC50 [1, 4] [nM] | EC50 [2, 5] [nM] | TD50 ABCB1 (Jurkat-DNR cells; [6]) [µM] | TD50 ABCG2 (Ig-MXP3 cells; [7]) [µM] | ~Fold G2 Selective (B1/G2) (ABCG2; quotient of average ABCB1 IC50 and average ABCG2 IC50, efflux assay) [fold] | efflux inhibition activity ABCB1 (ABCB1; JC-1 efflux, Jurkat-DNR) | IC50 (ABCB1; [8]) [µM] | efflux inhibition activity ABCG2 (ABCG2; JC-1 efflux, Ig-MXP3) | IC50 (ABCB1; read-out: IC50 ABCB1 (efflux inhibition of JC-1 substrate), listed as XR9051) [µM] | IC50 (ABCG2; read-out: IC50 ABCG2 (efflux inhibition of JC-1 substrate), Ig-MXP3 cells over-expressing ABCG2, averages of two to four replicates) [µM] | IC50 (ABCG2; read-out: IC50 ABCG2 (efflux inhibition of JC-1 substrate), Ig-MXP3 cells over-expressing ABCG2, averages of two to four replicates, listed as XR9051) [µM] | EC50 ([1]; values in nM, read-out: chemoreversal (CR50) ABCB1) [nM] | EC50 ([2]; values in nM, listed as XR9051, read-out: chemoreversal (CR50) ABCG2) [nM] | EC50 ([2]; values in nM, read-out: chemoreversal (CR50) ABCG2) [nM] | TD50 ABCB1 (Jurkat-DNR cells) [µM] | TD50 ABCG2 (Ig-MXP3 cells) [µM] |
| --- | --- | --- | --- | --- | --- | --- | --- | --- | --- | --- | --- | --- | --- | --- | --- | --- | --- | --- | --- |
| O=C(Cc1ccccc1)N1CCN(c2cc(-c3ccccc3)nc3cc(-c4cccc(Cl)c4)nn23)CC1 [Compound 24] | 4.68 ± 2.69 µM | 0.8 | 5.76 ± 3.4 | 510 | 600 | 17.80 | >100 | – | – | – | – | – | – | – | – | – | – | – | – |
| COc1ccccc1-c1cc2nc(-c3ccccc3)cc(N3CCN(C(=O)c4ccoc4)CC3)n2n1 [Compound 34] | 2.17 ± 0.76 µM | 4.8 | 0.45 ± 0.17 | 450 | 490 | 4.37 | 6.50 | – | – | – | – | – | – | – | – | – | – | – | – |
| O=C(c1cccnc1)N1CCN(c2cc(-c3ccccc3)nc3cc(-c4cccc(Cl)c4)nn23)CC1 [Compound 20] | 0.57 ± 0.08 µM | 2.5 | 0.23 ± 0.15 | 170 | 130 | 4.72 | 10.30 | – | – | – | – | – | – | – | – | – | – | – | – |
| COc1cccc(-c2cc(N3CCN(C(=O)c4ccoc4)CC3)n3nc(-c4ccccc4)cc3n2)c1 [Compound 65] | 16.4 µM | 83 | 0.2 | 180 | 680 | 5.77 | 67.80 | 82.1 | – | – | – | – | – | – | – | – | – | – | – |
| COc1ccc(-c2cc3nc(-c4ccccc4)cc(N4CCN(C(=O)c5ccoc5)CC4)n3n2)cc1 [Compound 36] | 1.44 ± 0.7 µM | 1.2 | 1.16 ± 0.66 | 230 | 380 | 5.54 | >100 | – | – | – | – | – | – | – | – | – | – | – | – |
| COc1ccccc1-c1cc(N2CCN(C(=O)c3ccoc3)CC2)n2nc(-c3ccccc3)cc2n1 [Compound 44] | 4.52 µM and 4.62 µM | 1.2 | 3.66 ± 2.54 | 170 | 680 | 3.73 | 7.62 | – | – | – | – | – | – | – | – | – | – | – | – |
| O=C(c1ccoc1)N1CCN(c2cc(-c3ccco3)nc3cc(-c4cccc(Cl)c4)nn23)CC1 [Compound 53] | 6.42 µM | 2.5 | 2.55 | 530 | 1380 | 8.53 | 10.80 | – | – | – | – | – | – | – | – | – | – | – | – |
| O=C(c1ccoc1)N1CCN(c2cc(-c3ccco3)nc3cc(-c4ccco4)nn23)CC1 [Compound 52] | 1.7 µM | 0.7 | 2.35 | 190 | 1210 | 1.93 | >100 | – | – | – | – | – | – | – | – | – | – | – | – |
| O=C(c1ccoc1)N1CCN(c2cc(-c3ccncc3)nc3cc(-c4cccc(Cl)c4)nn23)CC1 [Compound 31] | 3.68 ± 0.35 µM | 2.5 | 1.46 ± 0.35 | 600 | 890 | 13.50 | 57.80 | – | – | – | – | – | – | – | – | – | – | – | – |
| CC(=O)N1CCN(c2cc(-c3ccco3)nc3cc(-c4cccc(Cl)c4)nn23)CC1 [Compound 87] | 0.8 µM | 1.4 | 0.56 | 80 | 580 | 17.60 | >100 | – | – | – | – | – | – | – | – | – | – | – | – |
| COc1ccc(-c2cc3nc(-c4ccco4)cc(N4CCN(C(=O)c5ccoc5)CC4)n3n2)cc1 [Compound 57] | 3.45 µM | 3.9 | 0.89 | 5770 | 760 | >100 | >100 | – | – | – | – | – | – | – | – | – | – | – | – |
| COc1cccc(C(=O)N2CCN(c3cc(-c4ccccc4)nc4cc(-c5cccc(Cl)c5)nn34)CC2)c1 [Compound 15] | 2.64 ± 0.64 µM | 0.6 | 4.45 ± 4.68 | 350 | 210 | >100 | >100 | – | – | – | – | – | – | – | – | – | – | – | – |
| O=C(c1ccoc1)N1CCN(c2cc(-c3ccoc3)nc3cc(-c4ccccc4)nn23)CC1 [Compound 61] | 1.6 µM | 1.1 | 1.4 | 420 | 760 | 7.33 | 18.30 | – | – | – | – | – | – | – | – | – | – | – | – |
| CN(C)C(=O)CCSC(SCCC(=O)O)c1cccc(/C=C/c2ccc3ccc(Cl)cc3n2)c1 (centres unmarked) [Compound 5, reference compound] | > 50 µM | – | > 50 | 20400 | 57400 | 20.40 | 57.40 | – | didn't observe any inhibition | > 50 | didn't observe any inhibition | – | – | – | – | – | – | – | – |
| COc1cc2c(cc1OC)CN(CCc1ccc(NC(=O)c3cccc(/C=c4\[nH]c(=O)/c(=C/c5ccccc5)n(C)c4=O)c3)cc1)CC2 [Compound 2, reference compound] | – | – | – | – | – | – | – | – | – | 0.61 ± 0.43 | – | 0.6 | 2.27 ± 2.05 | 2.3 | 10 | 700 | 650 | 1.97 | 21.40 |
